Laboratory results reported in PubChem BioAssay (NCI).
Where “and” joins values, the source holds several entries; their conditions need not be identical. Equal entries are not always repeated.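 Dose response: 5 concentrations. Exposure: 48 h. Format: 96-well plates. Endpoint: linear interpolation; highest concentration if not reached. GI50 = concentration required for 50% inhibition of growth. At the TGI there is no net growth.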

Columns and labels:
Assay in all cases: growth of human tumour cells (NCI), 48 h
[1] = test system: BT-549 breast
[2] = test system: UACC-62 melanoma
[3] = test system: RPMI-8226 leukemia
[4] = test system: SF-295 CNS
[5] = test system: NCI-H460 lung
[6] = test system: MDA-MB-435
[7] = test system: CCRF-CEM leukemia
[8] = test system: LOX IMVI melanoma
[9] = test system: A498 renal
[10] = test system: SF-268 CNS

Row | SMILES | GI50 [1] | TGI [1] [µM] | GI50 [2] | TGI [2] [µM] | GI50 [3] | TGI [3] [µM] | GI50 [4] | TGI [4] [µM] | GI50 [5] | TGI [5] [µM] | GI50 [6] | TGI [6] [µM] | GI50 [7] | TGI [7] [µM] | GI50 [8] | TGI [8] | GI50 [9] | TGI [9] | GI50 [10] | TGI [10] [µM]
1 | O=C(CCCCCCSc1nc(-c2ccc(Cl)cc2)cc(-c2ccc(Cl)cc2)n1)NO | 1.92 µM | 36.2 | 1.26 µM | 4.18 | 1.7 µM | > 50 | 2.34 µM | 9.84 | 1.41 µM | 5.93 | 1.86 µM | 13.6 | 1.25 µM | > 50 | 1.28 µM | 3.75 µM | 1.03 µM | 4.05 µM | 1.7 µM | 7.49
2 | Cc1nc2n(c(=O)c1CCN1CCC(c3noc4cc(F)ccc34)CC1)CCCC2 | > 50 µM | > 50 | > 50 µM | > 50 | > 50 µM | > 50 | > 50 µM | > 50 | > 50 µM | > 50 | > 50 µM | > 50 | > 50 µM | > 50 | > 50 µM | > 50 µM | > 50 µM | > 50 µM | > 50 µM | > 50
3 | CN(C[C@@H]1COCCO1)S(=O)(=O)Nc1ccc2ccc3ncc(-c4cnn(C)c4)cc3c(=O)c2c1 | 2.01 µM | > 100 | 3.29 µM | > 100 | 3.88 µM | > 100 | 0.632 µM | > 34.2 | 4.26 µM | > 100 | 7.13 µM | > 100 | 5.65 µM | > 100 | 3.37 µM | > 100 µM | 0.447 µM | 2.18 µM | 4.26 µM | > 100
4 | CNC1C(O)C(OC2C(N)CC(N)C(OC3OC(C(C)O)C(O)C(O)C3N)C2O)OCC1(C)O (configuration not stated) |  | > 100 |  | > 100 |  | > 100 |  | > 100 |  | > 100 |  | > 100 |  | > 100 |  | > 100 µM |  | > 100 µM |  | > 100
5 | Nc1nnc(Cn2c(-c3ccccc3)nc3ccc(Br)cc3c2=O)s1 | 58.3 µM | > 100 | 15.2 µM | > 100 | 18.1 µM | 62.8 | 26.2 µM | > 100 | > 100 µM | > 100 | 45.9 µM | > 100 | 16.3 µM | 67.6 | 26.1 µM | > 100 µM | 15.1 µM | 74 µM | > 100 µM | > 100
6 | O=C(OCc1ccc2c(Cl)cc(Cl)c(O)c2n1)c1cc2ccccc2[nH]1 | 0.265 µM | 0.845 | 0.478 µM | 1.7 | 0.279 µM | 0.828 | 1.64 µM | 3.31 | 1.66 µM | 3.52 | 0.318 µM | 1.04 | 0.146 µM | 1.93 | 0.17 µM | 0.332 µM | 1.63 µM | 3 µM | 1.5 µM | 2.97
7 | C[C@H]1C(Oc2ccc(O)cc2)OC2OC3(C)CCC4[C@H](C)CCC1C24OO3 (some centres not stated) | 8.34 µM | 23.7 | 12.3 µM | 25.5 |  | > 63.1 | 16.2 µM | 34.5 | 15.1 µM | 30.5 | 12.4 µM | 46.3 | 8.52 µM | > 100 | 11.5 µM | 30.6 µM | 16.7 µM | 31.2 µM | 12.9 µM | 27.2
8 | COc1ccc(C(=O)COc2cccc(/C=C3\CSc4ccc(C)cc4C3=O)c2)cc1 | 27.6 µM | > 100 | 14.2 µM | > 100 | 1.89 µM | 6.47 | 15.8 µM | > 100 | > 100 µM | > 100 | 3.59 µM | 83.9 | 2.76 µM | > 100 | 2.53 µM | 8.06 µM | > 100 µM | > 100 µM | 19.3 µM | 72.9
9 | CCN1C(=O)N(c2ccccc2)C2NN=c3s/c(=C4\C(=O)N(C(C)C)c5ccccc54)c(=O)n3C21 (configuration not stated) | 1.8 µM | 18.9 | 0.626 µM | > 100 | 2.92 µM | 18 | 0.737 µM | 4.76 | 1.16 µM | > 38.9 | 0.283 µM | 0.991 | 1.16 µM | > 100 | 2.17 µM | 11.2 µM | 0.367 µM | 1.64 µM | 2.1 µM | > 100
10 | COc1ccccc1S(=O)(=O)Nc1ccc2c(c1)CN(C)C(=O)N2 | 9.98 µM and 26.3 µM | > 100 | 1.26 µM and 1.12 µM | > 100 | 2.16 µM and 1.89 µM | > 100 | 6.48 µM and 9.42 µM | > 100 | 10.6 µM and 13.4 µM | > 100 | 4.24 µM and 2.63 µM | > 100 | 5.31 µM and 7.05 µM | > 100 | 3.3 µM and 3.45 µM | 27.8 µM and 21.3 µM | 1.5 µM and 2.25 µM | 22.6 µM and 10.9 µM | 20 µM and 24.7 µM | > 100
11 | COc1ccc2c(c1)[n+](=O)c(C(=O)/C=C/c1cc(OC)c(OC)c(OC)c1)c(C)n2[O-] | 12.6 µM | 28.9 | 17.2 µM | 37.3 | 47.2 µM | > 100 | 27.1 µM | > 100 | 23 µM | > 100 | > 100 µM | > 100 | 28 µM | > 100 | 16 µM | 47.6 µM | 16.4 µM | 57.5 µM | 8.15 µM | 40.4
12 | COc1ccc(-c2cc(-c3cc(OC)c(OC)c(OC)c3)c(C#N)c(N3CCOCC3)n2)cc1O | 19.9 µM | > 100 | 60.2 µM | > 100 | 0.514 µM | 3.6 | 6.38 µM | > 73.8 | 1.07 µM | > 96.1 | 3.28 µM | > 43.7 | 6.46 µM | > 77.9 | 0.238 µM | 11.7 µM | > 21.4 µM | > 77.9 µM | 6 µM | > 100
13 | CCCCn1sc(=O)n(Cc2ccc(CNC(=O)OCc3ccc4c(Br)cc(Br)c(O)c4n3)cc2)c1=O | 0.406 µM | > 100 | 0.916 µM | > 100 | 0.501 µM | > 100 | 4.09 µM | > 24.5 | 0.395 µM | > 100 | 0.257 µM | 0.731 | 0.353 µM | > 100 | 0.403 µM | > 100 µM | 0.105 µM | 0.602 µM | 1.05 µM | > 100
14 | NC(=O)/C=C/NC(=O)/C=N\O |  | > 100 |  | > 100 |  | > 100 |  | > 100 |  | > 100 |  | > 100 |  | > 100 |  | > 100 µM |  | > 100 µM |  | > 100
15 | CCc1nc(N)nc(N)c1-c1ccc(NCCc2ccccc2)c([N+](=O)[O-])c1 |  | 42.9 |  | 15.8 |  | 7.35 |  | 32.9 |  | > 53.9 |  | > 73 |  | > 61.2 |  | > 100 µM |  | 43.4 µM |  | > 62.5
16 | O=[N+]([O-])c1ccc(Sc2c3ccccc3nc3ccccc23)nc1 |  | 27.3 |  | 29.5 |  | 5.03 |  | 51.1 |  | 42.6 |  | 21.3 |  | 5.76 |  | 4.97 µM |  | 32.8 µM |  | 19
17 | CCCCCCCCCCCCOC1C(CNC(=O)C2OC3OC(C)(C)OC3C2NC(=O)CN2CCCCCC2)OC2OC(C)(C)OC21 (configuration not stated) | 9.06 µM | 22.1 | 1.83 µM | 3.48 | 3.28 µM | 12.5 | 6.75 µM | 20.4 | 5.19 µM | 18.4 | 2.72 µM | 7.9 | 4.58 µM | 15.9 | 3.17 µM | 9.25 µM | 13 µM | 26.3 µM | 5.27 µM | 20.8
18 | O=C(NCCCCCCCCNC(=O)c1cccc2ccccc12)c1cccc2ccccc12 |  | > 100 |  | > 79.9 |  | > 100 |  | > 56.1 |  | > 100 |  | > 100 |  | > 100 |  | > 100 µM |  | 56.8 µM |  | > 81.8
19 | COc1ccc(Cn2cc3c(c2-c2cc(OC)c(OC)c(OC)c2)CCc2cnoc2-3)cc1[N+](=O)[O-] | 7.9 µM | > 100 | 0.404 µM | > 100 | 1.39 µM | > 29.9 | 0.328 µM | 2.09 | 0.721 µM | > 28.8 | 0.219 µM | 0.612 | 0.788 µM | > 100 | 0.898 µM | > 100 µM | 0.617 µM |  | 3.79 µM | > 100
20 | COc1cnc2c(c1)C(=O)c1c-2n(CCCN2CCCC2)c(=O)c2cc(F)ccc12 | 0.85 µM | 6.43 | 0.471 µM | 2.21 | 0.123 µM | 0.643 | 0.202 µM | 0.755 | 0.0603 µM | 0.3 | 0.49 µM | 13.9 | 0.199 µM | 2.82 | 0.185 µM | 0.558 µM | 0.344 µM | 1.65 µM | 0.411 µM | 13.9
21 | Cc1ccc(S(=O)(=O)Cc2nc(-c3ccc(C(=O)NCc4cccnc4)cc3)oc2C)cc1 | 3.37 µM | > 100 | > 91.2 µM | > 100 | 0.0673 µM | > 100 | 9.34 µM | > 100 | 0.843 µM | > 100 | 0.054 µM | 12 | 0.0103 µM | > 100 | 8.12 µM | > 100 µM | > 100 µM | > 100 µM | 19 µM | > 100
22 | Nc1nc(N)c2nc(CNc3ccc(C(=O)NC(CCCNC(=O)c4ccccc4C(=O)O)C(=O)O)cc3)cnc2n1 (configuration not stated) |  | > 100 | < 0.01 µM and 0.00129 µM | > 100 |  | > 100 | < 0.01 µM and 0.00332 µM |  | 0.00045 µM | > 100 |  | > 100 | 0.00148 µM | > 100 | 0.000373 µM | > 100 µM |  | > 100 µM |  | > 100
23 | N[C@@H]1CCCN(c2c(/C=C3\SC(=O)NC3=O)cccc2-c2ccccc2)C1 | 11.5 µM | 24.1 | 13.7 µM | 27.3 | 2.23 µM | 21.6 | 3.57 µM | 15.9 | 16.9 µM | 35.3 | 11.4 µM | 24.3 | 14 µM | 38.8 | 15.7 µM | 30.1 µM | 1.5 µM | 18.8 µM | 16.1 µM | 33.2
